Test results taken from patent US9145411B2, “Substituted amino-pyrimidine derivatives” (Asana Biosciences, LLC, priority 2012, dated 2015).

Columns and labels:
PI3Kα (wild-type) = molecular target: T1, PI3Kα (wild-type) (Homo sapiens, UniProt P42336); experiment: PI3 Kinase TR-FRET assay, PI3Kα (wild-type); assay type: biochemical; conditions: wild-type P110/P85α, 10 μM ATP
T1 construct: made in house; host or cells: SF9 insect cells
How it was run: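 Sf9-expressed, Ni-purified p110/p85α (5 ng) with PIP2 was preincubated with compound for 60 min at room temperature in buffer with 40 mM MgCl2 and 5 mM DTT. The reaction ran 30 min at room temperature with 10 μM PIP2 and 10 μM ATP. The TR-FRET 665/615 nm ratio was used to derive IC50 from dose-response curves.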

mTOR kinase = molecular target: T2, mTOR kinase (Homo sapiens, UniProt P42345); experiment: mTOR kinase TR-FRET assay; assay type: biochemical; conditions: 20 μM ATP
T2 construct: purchased Millipore, USA
How it was run: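 Test compounds were pre-incubated 60 min with mTOR (5 ng), then ULight-p70 S6K (Thr389) peptide (50 nM) and ATP (20 μM) were added in HEPES 50 mM pH 7.5, EGTA, MnCl2 3 mM. After 60 min at room temperature, EDTA stop and Eu-anti-phospho antibody TR-FRET (665/615 nm) gave IC50 from sigmoidal variable-slope fits.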

pAkt(T308) = experiment: In-cell Western assay, pAkt(T308), PC3 cells; assay type: cell-based; conditions: Homo sapiens, PC-3, 2 hours incubation
Description: Cells from human prostate cancer cell line PC3 (American Type Culture Collection (ATCC), Manassas, Va. 20108 USA) were seeded at an optimal density of 22,000 cell/well in 96-well plates containing Ham's F12K medium (90 μL) and incubated overnight. The compound dilutions were carried out in 100% DMSO followed by a dilution in the medium. Test compounds were added in serial dilutions to the wells and incubated for 2 hours. The cells were washed and fixed with 4% paraformaldehyde. After incubation at room temperature for 1 hour in the dark, blocking was done for 2 hours at room temperature. Primary antibodies for pAkt(S473) ([…] phosphorylated at serine 473), pAkt(T308) (Akt phosphorylated at threonine 308) and for pS6RP (S235/236) (phosphorylated at serine 235/236) (commercially available from Cell Signaling Technology®, whose protocol was followed for the in-cell western assay, were diluted to the required concentration and added to the corresponding wells followed by overnight incubation at 4° C. Eu-labeled rabbit (PE) (Perkin-Elmer USA catalog #AD0106) secondary antibody was added and incubated for 2 hours at room temperature. Delfia® enhancement solution (cat #1244-105, Perkin Elmer USA) was subsequently added to the plate before taking the reading at 615 nm with excitation wavelength of 340 nm, after which 0.5 μg/mL of Hoechst® 33258 dye (Catalog #86140-5, Sigma) was added to the plate and fluorescence emission was read at 460 nm with 355 nm excitation, to evaluate the correction factor. IC50 values were calculated using a sigmoidal dose-response curve fit in GraphPad Prism® v5 software.

PC3 cells = experiment: XTT assay for cell viability, PC3 cells; assay type: cell-based; conditions: Homo sapiens, PC-3; PC3 cell proliferation, 96 hours
Description: Using a commercial kit from Sigma Aldrich (Catalog #X34251) and following its protocol, PC3 cells in the log phase of growth were employed and seeded at an optimal density of 1000 cell/well on to 96 well plates and incubated for 24 hours followed by the addition of compounds of formula (I) in serial dilutions. Compound dilutions were made in DMSO. The cells were incubated with the compounds of formula (I) for 96 hours and XTT tetrazolium dye (Sigma, USA) was subsequently added and incubated at 37° C. After the color formation, absorbance was measured at 465 nm in a Spectramax® Gemini spectrophotometer. EC50 values were calculated using a sigmoidal dose response curve fit in GraphPad Prism® v5 software. The tested compounds of formula (I) which caused inhibition of PC3 cell proliferation as determined by this assay protocol are shown in Table 2.

T2 sequence (P42345 1362-2549 limits assumed): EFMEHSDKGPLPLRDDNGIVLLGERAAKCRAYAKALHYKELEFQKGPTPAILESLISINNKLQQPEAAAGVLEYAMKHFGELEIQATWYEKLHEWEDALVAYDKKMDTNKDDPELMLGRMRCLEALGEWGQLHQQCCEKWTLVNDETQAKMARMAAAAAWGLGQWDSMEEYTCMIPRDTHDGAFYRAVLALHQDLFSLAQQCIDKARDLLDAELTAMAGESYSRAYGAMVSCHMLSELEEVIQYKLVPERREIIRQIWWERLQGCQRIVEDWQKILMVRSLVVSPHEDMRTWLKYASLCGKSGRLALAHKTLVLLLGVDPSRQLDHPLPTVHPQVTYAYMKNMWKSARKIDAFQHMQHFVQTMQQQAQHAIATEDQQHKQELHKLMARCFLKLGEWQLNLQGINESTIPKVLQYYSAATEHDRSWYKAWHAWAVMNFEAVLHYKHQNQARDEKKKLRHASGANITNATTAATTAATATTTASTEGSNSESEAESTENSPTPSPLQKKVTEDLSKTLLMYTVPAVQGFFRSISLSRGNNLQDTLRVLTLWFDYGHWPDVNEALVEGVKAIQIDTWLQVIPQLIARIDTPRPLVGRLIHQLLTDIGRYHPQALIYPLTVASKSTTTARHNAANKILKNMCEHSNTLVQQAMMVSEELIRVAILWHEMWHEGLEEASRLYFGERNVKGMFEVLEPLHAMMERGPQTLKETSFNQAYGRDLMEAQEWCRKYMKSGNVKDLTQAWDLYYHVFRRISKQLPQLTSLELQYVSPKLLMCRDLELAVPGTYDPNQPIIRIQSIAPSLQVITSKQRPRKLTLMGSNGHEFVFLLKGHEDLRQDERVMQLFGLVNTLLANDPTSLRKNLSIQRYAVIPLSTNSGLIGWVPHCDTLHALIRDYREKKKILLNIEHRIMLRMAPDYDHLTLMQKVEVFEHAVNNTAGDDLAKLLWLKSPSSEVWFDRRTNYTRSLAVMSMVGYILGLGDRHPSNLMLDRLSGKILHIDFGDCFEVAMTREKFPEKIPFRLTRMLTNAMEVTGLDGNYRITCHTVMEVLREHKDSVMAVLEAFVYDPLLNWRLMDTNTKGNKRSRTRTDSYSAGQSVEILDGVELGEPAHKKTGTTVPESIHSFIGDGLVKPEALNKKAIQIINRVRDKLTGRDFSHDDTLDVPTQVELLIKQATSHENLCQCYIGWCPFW
T1 sequence (P42336 whole entry, species assumed): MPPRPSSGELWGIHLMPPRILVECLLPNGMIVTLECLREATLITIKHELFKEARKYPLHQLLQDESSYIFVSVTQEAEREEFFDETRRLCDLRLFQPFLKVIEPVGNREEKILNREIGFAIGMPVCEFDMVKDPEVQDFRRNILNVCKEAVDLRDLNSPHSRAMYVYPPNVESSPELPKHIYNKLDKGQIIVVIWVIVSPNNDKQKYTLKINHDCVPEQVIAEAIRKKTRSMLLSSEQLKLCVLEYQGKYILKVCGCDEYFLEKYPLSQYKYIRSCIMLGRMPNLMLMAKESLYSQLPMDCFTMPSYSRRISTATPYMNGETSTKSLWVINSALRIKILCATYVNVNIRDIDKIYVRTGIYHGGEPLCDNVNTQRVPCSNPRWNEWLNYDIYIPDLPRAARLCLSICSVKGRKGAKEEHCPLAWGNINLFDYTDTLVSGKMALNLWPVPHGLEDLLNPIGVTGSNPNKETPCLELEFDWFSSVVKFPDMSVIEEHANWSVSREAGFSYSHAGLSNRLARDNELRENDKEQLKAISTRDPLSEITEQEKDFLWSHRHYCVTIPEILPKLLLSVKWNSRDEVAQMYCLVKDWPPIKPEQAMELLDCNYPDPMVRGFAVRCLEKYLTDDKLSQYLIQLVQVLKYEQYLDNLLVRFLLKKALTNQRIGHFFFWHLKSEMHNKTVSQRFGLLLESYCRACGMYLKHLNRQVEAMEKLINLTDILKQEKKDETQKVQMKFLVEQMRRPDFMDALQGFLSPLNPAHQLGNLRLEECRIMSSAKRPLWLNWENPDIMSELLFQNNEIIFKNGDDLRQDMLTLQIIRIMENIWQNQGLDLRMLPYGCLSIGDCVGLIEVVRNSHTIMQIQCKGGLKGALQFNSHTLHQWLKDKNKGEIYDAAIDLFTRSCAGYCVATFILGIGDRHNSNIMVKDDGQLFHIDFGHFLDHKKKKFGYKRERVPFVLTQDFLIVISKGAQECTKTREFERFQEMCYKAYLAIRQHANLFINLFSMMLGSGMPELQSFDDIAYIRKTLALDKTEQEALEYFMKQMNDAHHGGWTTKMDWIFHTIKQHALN
T1 sequence (P27986 whole entry partner, species assumed): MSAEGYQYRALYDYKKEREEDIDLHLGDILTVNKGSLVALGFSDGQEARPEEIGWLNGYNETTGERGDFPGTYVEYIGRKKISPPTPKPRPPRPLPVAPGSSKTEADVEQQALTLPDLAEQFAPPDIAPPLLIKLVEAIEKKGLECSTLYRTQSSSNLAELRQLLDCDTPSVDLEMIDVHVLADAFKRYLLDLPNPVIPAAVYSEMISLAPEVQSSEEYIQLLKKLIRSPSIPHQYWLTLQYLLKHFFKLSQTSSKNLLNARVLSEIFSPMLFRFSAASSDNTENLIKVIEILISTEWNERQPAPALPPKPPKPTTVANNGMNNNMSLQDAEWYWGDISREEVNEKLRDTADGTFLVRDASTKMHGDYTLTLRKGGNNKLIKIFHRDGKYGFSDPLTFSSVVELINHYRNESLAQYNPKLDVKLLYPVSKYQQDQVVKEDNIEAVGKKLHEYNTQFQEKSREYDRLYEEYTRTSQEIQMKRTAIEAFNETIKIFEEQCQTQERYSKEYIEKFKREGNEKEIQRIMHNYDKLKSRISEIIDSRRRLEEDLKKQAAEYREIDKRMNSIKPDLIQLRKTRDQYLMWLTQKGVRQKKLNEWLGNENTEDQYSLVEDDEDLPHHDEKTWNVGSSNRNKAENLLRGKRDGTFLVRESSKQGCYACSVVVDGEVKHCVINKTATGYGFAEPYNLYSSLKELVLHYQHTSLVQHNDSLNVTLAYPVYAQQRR

IC50 (PI3Kα (wild-type)) | IC50 (mTOR kinase) | IC50 (pAkt(T308)) | IC50 (PC3 cells) | SMILES
< 50 nM | 50 to 200 nM | 100 to 500 nM |  | CN1CCN(C(=O)c2ccc(-c3cnc4c(N5CCOCC5)nc(-c5cnc(N)nc5)nc4c3)o2)CC1 [Example 5, (5-(2-(2-Aminopyrimidin-5-yl)-4-morpholinopyrido[3,2-d]pyrimidin-7-yl)furan-2-yl)(4-methylpiperazin-1-yl)methanone]
< 50 nM | < 50 nM | 100 to 500 nM | 100 to 500 nM | CNC(=O)Nc1ccc(-c2cnc3c(N4CCOCC4)nc(-c4cnc(N)nc4)nc3c2)cc1 [Example 29, 1-(4-(2-(2-amino-pyrimidin-5-yl)-4-morpholinopyrido[3,2-d]pyrimidin-7-yl)phenyl)-3-methylurea]
< 50 nM | < 50 nM | 100 to 500 nM | < 100 nM | Nc1ncc(-c2nc(N3CCOCC3)c3ncc(-c4cncc(NC(=O)C5CC5)c4)cc3n2)cn1 [Example 31, N-(5-(2-(2-amino-pyrimidin-5-yl)-4-morpholinopyrido[3,2-d]pyrimidin-7-yl)pyridin-3-yl)cyclopropane-carboxamide]
< 50 nM | < 50 nM | 501 to 5000 nM | 100 to 500 nM | Nc1ncc(-c2nc(N3CCOCC3)c3ncc(-c4cccc(NC(=O)CO)c4)cc3n2)cn1 [Example 50, N-(3-(2-(2-amino-pyrimidin-5-yl)-4-morpholinopyrido[3,2-d]pyrimidin-7-yl)phenyl)-2-hydroxyacetamide]
< 50 nM | < 50 nM | < 100 nM | 100 to 500 nM | CC(=O)Nc1ccc(-c2cnc3c(N4CCOCC4)nc(-c4cnc(N)nc4)nc3c2)cc1 [Example 54, N-(4-(2-(2-amino-pyrimidin-5-yl)-4-morpholinopyrido[3,2-d]pyrimidin-7-yl)-phenyl)acetamide]
< 50 nM |  | 100 to 500 nM |  | Nc1ncc(-c2nc(N3CCOCC3)c3ncc(-c4cccc(NC(=O)c5cnccn5)c4)cc3n2)cn1 [Example 64, N-(3-(2-(2-amino-pyrimidin-5-yl)-4-morpholinopyrido[3,2-d]pyrimidin-7-yl)-phenyl)pyrazine-2-carboxamide]
< 50 nM | 50 to 200 nM |  | 100 to 500 nM | CC(=O)Nc1ccc(F)c(-c2cnc3c(N4CCOCC4)nc(-c4cnc(N)nc4)nc3c2)c1F [Example 123, N-(3-(2-(2-amino-pyrimidin-5-yl)-4-morpholinopyrido[3,2-d]pyrimidin-7-yl)-2,4-difluorophenyl)acetamide]
< 50 nM | 50 to 200 nM |  | > 1000 nM | N#CC1(C(=O)Nc2ccc(F)c(-c3cnc4c(N5CCOCC5)nc(-c5cnc(N)nc5)nc4c3)c2)CC1 [Example 124, N-(3-(2-(2-amino-pyrimidin-5-yl)-4-morpholinopyrido[3,2-d]pyrimidin-7-yl)-4-fluorophenyl)-1-cyanocyclopropane-carboxamide]
< 50 nM | < 50 nM |  | 100 to 500 nM | N#CC1(C(=O)Nc2cccc(-c3cnc4c(N5CCOCC5)nc(-c5cnc(N)nc5)nc4c3)c2F)CC1 [Example 125, N-(3-(2-(2-amino-pyrimidin-5-yl)-4-morpholinopyrido[3,2-d]pyrimidin-7-yl)-2-fluorophenyl)-1-cyanocyclopropane-carboxamide]

Continued, compound first:

SMILES | IC50 (PI3Kα (wild-type)) | IC50 (mTOR kinase) | IC50 (pAkt(T308)) | IC50 (PC3 cells)
Nc1ncc(-c2nc(N3CCOCC3)c3ncc(-c4cccc(NS(=O)(=O)c5ccc(F)cc5)c4)cc3n2)cn1 [Example 8, N-(3-(2-(2-aminopyrimidin-5-yl)-4-morpholinopyrido[3,2-d]pyrimidin-7-yl)phenyl)-4-fluorobenzenesulfonamide] | < 50 nM | < 50 nM | 100 to 500 nM | 501 to 5000 nM
Nc1ncc(-c2nc(N3CCOCC3)c3ncc(-c4cccc(NC(=O)CN5CCC(O)CC5)c4)cc3n2)cn1 [Example 9, N-(3-(2-(2-Aminopyrimidin-5-yl)-4-morpholinopyrido[3,2-d]pyrimidin-7-yl)-phenyl)-2-(4-hydroxypiperidin-1-yl)acetamide] | < 50 nM | < 50 nM | < 100 nM | 100 to 500 nM
CNC(=O)c1ccc(-c2cnc3c(N4CCOCC4)nc(-c4cnc(N)nc4)nc3c2)cc1 [Example 33, 4-(2-(2-aminopyrimidin-5-yl)-4-morpholinopyrido[3,2-d]pyrimidin-7-yl)-N-methylbenzamide] | < 50 nM | < 50 nM | 100 to 500 nM | 100 to 500 nM
N#CCC(=O)Nc1cccc(-c2cnc3c(N4CCOCC4)nc(-c4cnc(N)nc4)nc3c2)c1 [Example 53, N-(3-(2-(2-amino-pyrimidin-5-yl)-4-morpholinopyrido[3,2-d]pyrimidin-7-yl)phenyl)-2-cyanoacetamide] | < 50 nM | < 50 nM | 100 to 500 nM | 100 to 500 nM
CC(=O)Nc1cccc(-c2cnc3c(N4CCOCC4)nc(-c4cnc(N)nc4)nc3c2)c1C [Example 56, N-(3-(2-(2-amino-pyrimidin-5-yl)-4-morpholinopyrido[3,2-d]pyrimidin-7-yl)-2-methylphenyl)acetamide] | < 50 nM | 50 to 200 nM | 100 to 500 nM | 100 to 500 nM
Nc1ncc(-c2nc(N3CCOCC3)c3ncc(-c4cccc(NC(=O)C5CCCC5)c4)cc3n2)cn1 [Example 57, N-(3-(2-(2-amino-pyrimidin-5-yl)-4-morpholinopyrido[3,2-d]pyrimidin-7-yl)-phenyl)cyclopentane-carboxamide] | < 50 nM | < 50 nM | 100 to 500 nM | 501 to 5000 nM
CN1CCN(CC(=O)Nc2cccc(-c3cnc4c(N5CCOCC5)nc(-c5cnc(N)nc5)nc4c3)c2F)CC1 [Example 86, N-(3-(2-(2-amino-pyrimidin-5-yl)-4-morpholinopyrido[3,2-d]-pyrimidin-7-yl)-2-fluoro-phenyl)-2-(4-methyl-piperazin-1-yl)acetamide] | < 50 nM | 50 to 200 nM | 501 to 5000 nM | 
Nc1ncc(-c2nc(N3CCOCC3)c3ncc(-c4cccc(N5CCN(CCO)CC5)c4)cc3n2)cn1 [Example 113, 2-(4-(3-(2-(2-amino-pyrimidin-5-yl)-4-morpholinopyrido[3,2-d]pyrimidin-7-yl)-phenyl)piperazin-1-yl)-ethanol] | < 50 nM | < 50 nM |  | 501 to 5000 nM
CC(=O)Nc1cc(-c2cnc3c(N4CCOCC4)nc(-c4cnc(N)nc4)nc3c2)ccc1N1CCN(C)CC1 [Example 114, N-(5-(2-(2-amino-pyrimidin-5-yl)-4-morpholinopyrido[3,2-d]pyrimidin-7-yl)-2-(4-methylpiperazin-1-yl)-phenyl)acetamide] | < 50 nM | < 50 nM |  | 100 to 500 nM
Nc1ncc(-c2nc(N3CCOCC3)c3ncc(-c4cccc(NC(=O)C5CC5)c4F)cc3n2)cn1 [Example 115, N-(3-(2-(2-amino-pyrimidin-5-yl)-4-morpholinopyrido[3,2-d]pyrimidin-7-yl)-2-fluorophenyl)-cyclopropane-carboxamide] | < 50 nM | < 50 nM |  | 100 to 500 nM
Nc1ncc(-c2nc(N3CCOCC3)c3ncc(-c4cccc(C(=O)N5CCN(CCO)CC5)c4)cc3n2)cn1 [Example 116, (3-(2-(2-aminopyrimidin-5-yl)-4-morpholinopyrido[3,2-d]-pyrimidin-7-yl)phenyl)(4-(2-hydroxyethyl)piperazin-1-yl)methanone] | < 50 nM | 201 to 10000 nM |  | 501 to 5000 nM
CN1CCN(c2ccc(-c3cnc4c(N5CCOCC5)nc(-c5cnc(N)nc5)nc4c3)cc2NC(=O)C2CC2)CC1 [Example 117, N-(5-(2-(2-amino-pyrimidin-5-yl)-4-morpholinopyrido[3,2-d]pyrimidin-7-yl)-2-(4-methylpiperazin-1-yl)-phenyl)cyclopropane-carboxamide] | < 50 nM | < 50 nM |  | 100 to 500 nM
